Experimental findings from ChEMBL document CHEMBL5321296, “Structure-Based Ligand Discovery Targeting the Transmembrane Domain of Frizzled Receptor FZD7” (J Med Chem, 2023) are described below.

The target of one test is Frizzled-7 (Homo sapiens, UniProt O75084). Kind of test: Antagonist activity at his-tagged FZD7 transmembrane domain (unknown origin) assessed as dissociation constant by SPR analysis.
The target of test [1] is Protein smoothened (Homo sapiens) (UniProt Q99835). Kind of test: Binding affinity to SMO (unknown origin) assessed as dissociation constant by SPR analysis.
Test [2] can be described thus: Inhibition of Wnt/beta-catenin signalling in Wnt3a stimulated human HEK293 cells assessed as reduction in luciferase activity incubated for 24 hrs by TOPFlash luciferase reporter assay. The note with it: HEK293, 24 h. Format: cell-based.

Calls of active or inactive are those of the source. No cut-off for these calls is given here.

Chain of Protein smoothened (Homo sapiens) (Q99835 whole entry): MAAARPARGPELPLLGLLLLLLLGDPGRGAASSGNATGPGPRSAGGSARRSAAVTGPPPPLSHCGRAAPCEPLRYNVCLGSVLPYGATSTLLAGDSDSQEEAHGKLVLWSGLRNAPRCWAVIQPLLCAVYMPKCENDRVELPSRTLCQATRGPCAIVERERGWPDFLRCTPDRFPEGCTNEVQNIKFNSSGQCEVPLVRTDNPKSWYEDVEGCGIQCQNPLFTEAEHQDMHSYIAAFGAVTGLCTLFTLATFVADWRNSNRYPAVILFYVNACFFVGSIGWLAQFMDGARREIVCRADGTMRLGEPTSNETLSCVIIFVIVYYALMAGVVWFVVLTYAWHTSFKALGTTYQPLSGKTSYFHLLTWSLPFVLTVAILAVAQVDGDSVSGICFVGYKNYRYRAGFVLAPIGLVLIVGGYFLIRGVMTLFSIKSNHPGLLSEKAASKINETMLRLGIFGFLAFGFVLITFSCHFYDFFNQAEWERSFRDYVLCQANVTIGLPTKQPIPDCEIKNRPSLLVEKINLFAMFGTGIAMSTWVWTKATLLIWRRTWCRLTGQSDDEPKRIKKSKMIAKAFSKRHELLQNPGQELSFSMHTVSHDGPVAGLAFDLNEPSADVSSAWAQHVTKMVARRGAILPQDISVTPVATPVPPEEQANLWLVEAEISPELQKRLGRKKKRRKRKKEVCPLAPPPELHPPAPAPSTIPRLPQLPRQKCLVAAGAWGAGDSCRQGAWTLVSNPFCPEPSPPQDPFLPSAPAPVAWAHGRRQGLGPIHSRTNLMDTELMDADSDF

For `O=C(CSc1ccc(NC(=O)c2ccc(F)cc2)cc1)Nc1nc(-c2ccccc2)cs1`, the Kd at Frizzled-7 was 160 nM. In addition, the outcome in test [1] was inactive. For the same molecule, the IC50 in test [2] was 1280 nM. For `Cc1ccc(C(=O)Nc2ccc(SCC(=O)Nc3nc(-c4ccccc4)cs3)cc2)cc1`, the IC50 in test [2] came out at 230 nM. Still for that read-out and setting: next, `Cc1ccc(C(=O)Nc2ccc(SCC(=O)Nc3nc(-c4ccccc4)cs3)cc2)c(C)c1`: 40 nM.
